ChEMBL document CHEMBL5625197, “The mystery of titan hunter: Rationalized striking of the MAPK pathway via Newly synthesized 6-Indolylpyridone-3-Carbonitrile derivatives” (Eur J Med Chem, 2023)

Tests used:
[1] = test system: SR; test: cells; assay type: functional; conditions: Homo sapiens, 96 h, time 4 day, read-out: GI
Description: Growth inhibition of human SR cells at 10 uM incubated for 4 days by MTT assay relative to control

[2] = test system: RXF 393; test: cells; assay type: functional; conditions: Homo sapiens, RXF 393, 96 h, time 4 day, read-out: GI
Description: Growth inhibition of human RXF 393 cells at 10 uM incubated for 4 days by MTT assay relative to control

[3] = test system: HCT-116; test: cells; assay type: functional; conditions: Homo sapiens, HCT-116, 96 h, time 4 day, read-out: GI
Description: Growth inhibition of human HCT-116 cells at 10 uM incubated for 4 days by MTT assay relative to control

[4] = test system: HOP-92; test: cells; assay type: functional; conditions: Homo sapiens, HOP-92, 96 h, time 4 day, read-out: GI
Description: Growth inhibition of human HOP-92 cells at 10 uM incubated for 4 days by MTT assay relative to control

[5] = target: Hepatocyte growth factor receptor (Homo sapiens, UniProt P08581); test: Inhibition of c-Met (unknown origin)
[6] = Selectivity index, ratio of GI50 for cytotoxicity against human FHC cells to GI50 for cytotoxicity against human HCT-116 cells; assay type: toxicity, cell-based; conditions: FHC cells versus HCT-116 cells, read-out: RatioGI50
[7] = Selectivity index, ratio of GI50 for cytotoxicity against human PCS-800-011 cells to GI50 for cytotoxicity against human SR cells; assay type: toxicity, cell-based; conditions: PCS-800-011 cells versus SR cells, read-out: RatioGI50
[8] = Cytotoxicity against human PCS-800-011 cells assessed as fold change in cell growth inhibition incubated for 4 days by MTT assay; assay type: toxicity, cell-based; conditions: pcs-800-011, 96 h, time 4 day
[9] = Selectivity index, ratio of GI50 for cytotoxicity against human HEK293 cells to GI50 for cytotoxicity against human RXF 393 cells
[10] = test system: RXF 393; test: Cytotoxicity against human RXF 393 cells assessed as cell growth inhibition incubated for 4 days by MTT assay; assay type: functional; conditions: RXF 393, 96 h, time 4 day
[11] = Selectivity index, ratio of GI50 for cytotoxicity against human MRC5 cells to GI50 for cytotoxicity against human HOP-92 cells
[12] = test system: HOP-92; test: Cytotoxicity against human HOP-92 cells assessed as cell growth inhibition incubated for 4 days by MTT assay; assay type: functional; conditions: HOP-92, 96 h, time 4 day
[13] = Cytotoxicity against human FHC cells assessed as cell growth inhibition incubated for 4 days by MTT assay
[14] = Cytotoxicity against human PCS-800-011 cells assessed as cell growth inhibition incubated for 4 days by MTT assay
[15] = test system: SR; test: Cytotoxicity against human SR cells assessed as cell growth inhibition incubated for 4 days by MTT assay; assay type: functional; conditions: 96 h, time 4 day
[16] = Cytotoxicity against human HEK293 cells assessed as cell growth inhibition incubated for 4 days by MTT assay
[17] = test system: HCT-116; test: Cytotoxicity against human HCT-116 cells assessed as cell growth inhibition incubated for 4 days by MTT assay; assay type: functional; conditions: HCT-116, 96 h, time 4 day
[18] = Cytotoxicity against human MRC5 cells assessed as cell growth inhibition incubated for 4 days by MTT assay

| SMILES | inhibition of growth at 10 µM [1] | inhibition of growth at 10 µM [2] | inhibition of growth at 10 µM [3] | inhibition of growth at 10 µM [4] | also measured |
| --- | --- | --- | --- | --- | --- |
| N#Cc1c(-c2cccnc2)cc(-c2c[nH]c3ccccc23)[nH]c1=O | 13.2% | -0.69% | 9.94% | 13% | – |
| N#Cc1c(-c2cccc([N+](=O)[O-])c2)cc(-c2c[nH]c3ccccc23)[nH]c1=O | 18.1% | 16.9% | 6.36% | 9.93% | – |
| N#Cc1c(-c2ccc(C(F)(F)F)cc2)cc(-c2c[nH]c3ccccc23)[nH]c1=O | 48.5% | 71.6% | 67.5% | 56.7% | – |
| CCOc1ccn(-c2ccc(F)cc2)c(=O)c1C(=O)Nc1ccc(Oc2ccnc(N)c2Cl)c(F)c1 [BMS-777607] | – | – | – | – | IC50 [5]: 0.128 µM |
| N#Cc1c(-c2cccc(Cl)c2Cl)cc(-c2c[nH]c3ccccc23)[nH]c1=O | 57.6% | 63.2% | 81.7% | 77.8% | selectivity ratio [6]: 8.09; selectivity ratio [7]: 3.74; fold change (FC) [8]: 4; RatioGI50 [9]: 3.8; GI50 [10]: 16.1 µM; RatioGI50 [11]: 4.62; GI50 [12]: 15.4 µM; GI50 at 96 h [13]: 65.7 µM; GI50 at 96 h [14]: 83.4 µM; GI50 [15]: 22.3 µM; GI50 at 96 h [16]: 61 µM; GI50 [17]: 8.12 µM; GI50 at 96 h [18]: 71.3 µM |
| N#Cc1c(-c2cccc(Cl)c2)cc(-c2c[nH]c3ccccc23)[nH]c1=O | 71.9% | 67.5% | 51.1% | 38.6% | – |
| N#Cc1c(-c2ccccc2Cl)cc(-c2c[nH]c3ccccc23)[nH]c1=O | 90% | 51.3% | 47.6% | 55.1% | – |
| N#Cc1c(-c2ccc(O)c(O)c2)cc(-c2c[nH]c3ccccc23)[nH]c1=O | 69.8% | 11% | 9.54% | 31.2% | – |
